From ChEMBL document CHEMBL1201862, “PubChem BioAssay data set” (2004)
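Grown in 96-well plates, cells were treated for 48 hours with each compound at five concentrations. Insufficient inhibition: endpoint recorded as highest concentration tested. GI50 marks 50% less growth.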 Activity calls are given as the source filed them. No stated cut-off is given here; in the data, active = GI50 up to about 1.1 µM and inactive = higher.

Assays:
Experiment in all cases: DTP human tumour cell line panel, 48 h
[1] = test system: NCI-H23
[2] = test system: UO-31
[3] = test system: A498
[4] = test system: OVCAR-4
[5] = test system: SNB-75
[6] = test system: LOX IMVI
[7] = test system: SK-OV-3
[8] = test system: K562
[9] = test system: OVCAR-8
[10] = test system: IGROV-1
[11] = test system: SNB-19
[12] = test system: SF-268
[13] = test system: NCI-H460
[14] = test system: M14
[15] = test system: COLO 205
[16] = test system: UACC-62

Row | Compound | GI50 [1] | GI50 [2] | GI50 [3] | GI50 [4] | GI50 [5] | GI50 [6] | GI50 [7] | GI50 [8] | GI50 [9] | GI50 [10] | GI50 [11] | GI50 [12] | GI50 [13] | GI50 [14] | GI50 [15] | GI50 [16]
1 | CN(C(=O)C12C3C4C5C3C1(C(=O)O)C5C42)C(C)(C)C (stereo not drawn) | > 100 µM (inactive) | > 100 µM (inactive) | > 100 µM (inactive) | > 100 µM (inactive) | > 100 µM (inactive) | 26.1 µM (inactive) | > 100 µM (inactive) | 44.6 µM (inactive) | > 100 µM (inactive) | > 100 µM (inactive) | > 100 µM (inactive) | > 100 µM (inactive) | > 100 µM (inactive) | > 100 µM (inactive) | 28 µM (inactive) | > 100 µM (inactive)
2 | O=c1c(-c2ccccc2)c2oc(c1-c1ccccc1)CSCc1cccc(c1)CSC2 | > 100 µM (inactive) | 32.1 µM (inactive) | 21.8 µM (inactive) | 51.9 µM (inactive) | 15.3 µM (inactive) | 32.9 µM (inactive) | 25.1 µM (inactive) | 62.5 µM (inactive) | 43.1 µM (inactive) | 26.3 µM (inactive) | 33 µM (inactive) | 30.5 µM (inactive) | 38.7 µM (inactive) | > 100 µM (inactive) | 49.1 µM (inactive) | 44.1 µM (inactive)
3 | C[n+]1c2ccccc2c(CNCC(=O)O)c2ccccc21 | 6.95 µM (inactive) | 10.9 µM (inactive) | 2.61 µM (inactive) | 12.6 µM (inactive) | 8.41 µM (inactive) |  | 4.74 µM (inactive) | 0.504 µM (active) | 2.75 µM (inactive) | 5.96 µM (inactive) | 10.2 µM (inactive) | 0.459 µM (active) | 3.76 µM (inactive) | 3.97 µM (inactive) | 0.418 µM (active) | 1.21 µM (inactive)
4 | COc1cccc(C2C(C(=O)Nc3cc(=O)n(C)c(=O)n3C)=C(C)NC(C)=C2C(=O)Nc2cc(=O)n(C)c(=O)n2C)c1O | > 100 µM (inactive) | > 100 µM (inactive) | > 100 µM (inactive) | > 100 µM (inactive) | 23.9 µM (inactive) | > 100 µM (inactive) | > 100 µM (inactive) | > 100 µM (inactive) | > 100 µM (inactive) | > 100 µM (inactive) | > 100 µM (inactive) | > 100 µM (inactive) | > 100 µM (inactive) | > 100 µM (inactive) | > 100 µM (inactive) | 
5 | Cc1ccc(S(=O)(=O)C2CC2(Cl)Cl)cc1 (stereo not drawn) | 24.7 µM (inactive) | 22 µM (inactive) |  | 0.0162 µM (active) | 55.7 µM (inactive) | 15.9 µM (inactive) | > 100 µM (inactive) | 26.5 µM (inactive) | 20.9 µM (inactive) | 26.9 µM (inactive) | > 100 µM (inactive) | 34 µM (inactive) | 50.1 µM (inactive) | 14.7 µM (inactive) | 21.6 µM (inactive) | 27.4 µM (inactive)
6 | Cc1ccc(S(=O)(=O)NC2(C=O)CCC(C(C)(C)C)CC2)cc1 (stereo not drawn) | 31.2 µM (inactive) | 38.1 µM (inactive) | 89.9 µM (inactive) | 27.7 µM (inactive) | 45.2 µM (inactive) |  | > 100 µM (inactive) | 28.8 µM (inactive) | 36.5 µM (inactive) | 37.7 µM (inactive) | 68.7 µM (inactive) | 38.9 µM (inactive) | 32.3 µM (inactive) | 71 µM (inactive) | 26.7 µM (inactive) | 39 µM (inactive)
7 | N#CC1=C(c2ccccc2)OC2(N)OC(c3ccccc3)=C(C#N)C12C#N (stereo not drawn) | > 100 µM (inactive) | 31.5 µM (inactive) | > 100 µM (inactive) | 60.3 µM (inactive) | 43.6 µM (inactive) | > 100 µM (inactive) | > 100 µM (inactive) | > 100 µM (inactive) | 74.8 µM (inactive) | > 100 µM (inactive) | > 100 µM (inactive) | > 100 µM (inactive) | > 100 µM (inactive) | > 100 µM (inactive) | > 100 µM (inactive) | > 100 µM (inactive)
8 | COc1nc2c(c(O)c(C)c(=O)n2OC2OCC(OC(C)=O)C(OC(C)=O)C2OC(C)=O)c(=O)n1C (stereo not drawn) | > 100 µM (inactive) | > 100 µM (inactive) |  | > 100 µM (inactive) | > 100 µM (inactive) | > 100 µM (inactive) |  | > 100 µM (inactive) | > 100 µM (inactive) | > 100 µM (inactive) | > 100 µM (inactive) | > 100 µM (inactive) | > 100 µM (inactive) | > 100 µM (inactive) | > 100 µM (inactive) | > 100 µM (inactive)
9 | O=c1[nH]cc(F)c(=O)n1C1OC(CO)C(O)C1O (stereo not drawn) | > 100 µM (inactive) | > 100 µM (inactive) |  | > 100 µM (inactive) | > 100 µM (inactive) | > 100 µM (inactive) | > 100 µM (inactive) | > 100 µM (inactive) | > 100 µM (inactive) |  | > 100 µM (inactive) | > 100 µM (inactive) | > 100 µM (inactive) | > 100 µM (inactive) | > 100 µM (inactive) | 
10 | CCOc1ccc2c(c1)[n+]([O-])c(C(N)=O)c(N)[n+]2[O-] | > 100 µM (inactive) | > 100 µM (inactive) | > 100 µM (inactive) | > 100 µM (inactive) | > 100 µM (inactive) |  | > 100 µM (inactive) | > 100 µM (inactive) | > 100 µM (inactive) | > 100 µM (inactive) | > 100 µM (inactive) | > 100 µM (inactive) | > 100 µM (inactive) | > 100 µM (inactive) | > 100 µM (inactive) | 
11 | O=C(O)/C(Cl)=C(\Cl)Nc1cccc(C(F)(F)F)c1 | > 100 µM (inactive) | > 100 µM (inactive) |  | > 100 µM (inactive) | > 100 µM (inactive) | > 100 µM (inactive) | > 100 µM (inactive) | > 100 µM (inactive) | > 100 µM (inactive) | > 100 µM (inactive) |  | > 100 µM (inactive) | > 100 µM (inactive) | 18 µM (inactive) | > 100 µM (inactive) | > 100 µM (inactive)
12 | CCCC(S(=O)(=O)c1ccccc1)S(=O)(=O)c1ccccc1 | > 100 µM (inactive) | > 100 µM (inactive) | > 100 µM (inactive) | > 100 µM (inactive) | > 100 µM (inactive) |  | > 100 µM (inactive) | > 100 µM (inactive) | > 100 µM (inactive) | > 100 µM (inactive) |  |  | > 100 µM (inactive) | > 100 µM (inactive) |  | > 100 µM (inactive)
13 | Cc1ccccc1C(C#N)/C(=N/NC(=O)c1cc2ccccc2cc1O)C(=O)Nc1cccc(Cl)c1 (stereo not drawn) | 12.4 µM (inactive) | 3.13 µM (inactive) | 41.4 µM (inactive) | 21.6 µM (inactive) | 6.24 µM (inactive) |  | 41.8 µM (inactive) | 9.64 µM (inactive) | 8.85 µM (inactive) | 9.93 µM (inactive) | 37.9 µM (inactive) | 7.69 µM (inactive) | 28.7 µM (inactive) | 18.6 µM (inactive) | 24.4 µM (inactive) | 4.27 µM (inactive)
14 | COC(=O)CCC(=O)CC(=O)C(=O)Nc1c(Cl)cc([N+](=O)[O-])cc1Cl | > 100 µM (inactive) | > 100 µM (inactive) | 57.3 µM (inactive) | > 100 µM (inactive) | 47.2 µM (inactive) | 52.1 µM (inactive) | > 100 µM (inactive) | > 100 µM (inactive) | > 100 µM (inactive) | > 100 µM (inactive) | > 100 µM (inactive) | > 100 µM (inactive) | > 100 µM (inactive) | > 100 µM (inactive) | > 100 µM (inactive) | > 100 µM (inactive)
15 | Nc1nc2c(ncn2CCCC(c2ccccc2)P(=O)(O)O)c(=O)[nH]1 (stereo not drawn) | > 100 µM (inactive) | > 100 µM (inactive) |  |  | > 100 µM (inactive) | > 100 µM (inactive) | > 100 µM (inactive) | > 100 µM (inactive) | > 100 µM (inactive) | > 100 µM (inactive) | > 100 µM (inactive) | > 100 µM (inactive) | > 100 µM (inactive) | > 100 µM (inactive) | > 100 µM (inactive) | > 100 µM (inactive)
16 | O=C1C(N2C(=O)c3ccccc3C2=O)CN1C(COCc1ccccc1)c1ccc(OCc2ccccc2)cc1 (stereo not drawn) | > 100 µM (inactive) | > 100 µM (inactive) | > 100 µM (inactive) | > 100 µM (inactive) | > 100 µM (inactive) | > 100 µM (inactive) | > 100 µM (inactive) | > 100 µM (inactive) | > 100 µM (inactive) | > 100 µM (inactive) | > 100 µM (inactive) | > 100 µM (inactive) | > 100 µM (inactive) | > 100 µM (inactive) | > 100 µM (inactive) | > 100 µM (inactive)
17 | COc1ccc(-c2nc3c(nc2-c2ccc(OC)cc2)N(C)S(=O)(=O)N=C3N)cc1 | 28.7 µM (inactive) | 13.6 µM (inactive) | 22.5 µM (inactive) | 14.1 µM (inactive) | 24 µM (inactive) | 15.5 µM (inactive) | 24.6 µM (inactive) | 24.4 µM (inactive) | 34.2 µM (inactive) | 28.1 µM (inactive) | 28.1 µM (inactive) | 24.3 µM (inactive) | 22.8 µM (inactive) | 34.4 µM (inactive) | 14.7 µM (inactive) | 22.8 µM (inactive)
18 | COc1c(OC2OC(CO)C(O)C(O)C2O)cc2c(c1OC)-c1ccc(OC)c(=O)cc1[C@@H](NC(C)=O)CC2 (stereo partly drawn) | > 100 µM (inactive) | > 100 µM (inactive) | > 100 µM (inactive) | > 100 µM (inactive) | 25.8 µM (inactive) | > 100 µM (inactive) | > 100 µM (inactive) | 52.1 µM (inactive) | > 100 µM (inactive) | 83 µM (inactive) | > 100 µM (inactive) | > 56.2 µM (inactive) | > 100 µM (inactive) | 76.4 µM (inactive) | > 100 µM (inactive) | 51.5 µM (inactive)
